Calls of active or inactive are those of the source. The calls are words filed in the database; no cut-off is given here.
How the values were obtained:
[1] = biological target: T1, Neuropeptide Y receptor type 5 (Homo sapiens, UniProt Q15761)
T1 sequence (Q15761 whole entry): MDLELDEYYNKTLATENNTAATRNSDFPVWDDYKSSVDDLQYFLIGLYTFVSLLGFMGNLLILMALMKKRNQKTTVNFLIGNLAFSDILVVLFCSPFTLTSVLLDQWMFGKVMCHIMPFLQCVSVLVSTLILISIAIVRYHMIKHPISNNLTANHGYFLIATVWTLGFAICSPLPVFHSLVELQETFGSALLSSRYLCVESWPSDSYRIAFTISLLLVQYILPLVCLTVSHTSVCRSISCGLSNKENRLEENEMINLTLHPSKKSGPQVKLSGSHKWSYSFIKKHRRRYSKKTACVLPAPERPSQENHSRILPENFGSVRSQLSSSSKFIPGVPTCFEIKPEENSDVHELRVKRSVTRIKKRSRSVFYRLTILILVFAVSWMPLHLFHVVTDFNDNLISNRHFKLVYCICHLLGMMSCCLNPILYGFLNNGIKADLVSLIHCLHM
Description: Displacement of [125I]PYY from human recombinant Y5 receptor

[2] = test system: Rattus norvegicus; experiment: Inhibition of [D-Trp34]NPY-induced food intake in Sprague-Dawley rat at 3 mg/kg, po treated 2 hrs before [D-Trp34]NPY challenge; assay type: functional
[3] = test system: Rattus norvegicus; experiment: Inhibition of [D-Trp34]NPY-induced food intake in Sprague-Dawley rat at 10 mg/kg, po treated 2 hrs before [D-Trp34]NPY challenge; assay type: functional
[4] = test system: Rattus norvegicus; experiment: Inhibition of NPY-induced food intake in Sprague-Dawley rat at 10 mg/kg, po treated 2 hrs before [D-Trp34]NPY challenge; assay type: functional
[5] = species: Mus musculus; experiment: Ex vivo Y5 receptor occupancy in mouse brain at plasma level of 10 to 20 ng/ml; assay type: functional, organism-based
[6] = test system: Rattus norvegicus; experiment: Inhibition of [D-Trp34]NPY-induced food intake in Sprague-Dawley rat assessed as minimum effective dose treated po 2 hrs before [D-Trp34]NPY challenge; assay type: functional; details: read-out: MED
[7] = test system: Rattus norvegicus; experiment: Inhibition of [D-Trp34]NPY-induced food intake in Sprague-Dawley rat at 0.3 mg/kg, po treated 2 hrs before [D-Trp34]NPY challenge; assay type: functional
[8] = test system: Rattus norvegicus; experiment: Inhibition of [D-Trp34]NPY-induced food intake in Sprague-Dawley rat at 1 mg/kg, po treated 2 hrs before [D-Trp34]NPY challenge; assay type: functional
[9] = biological target: T2, Neuropeptide Y receptor type 5 (Rattus norvegicus, UniProt Q63634)
T2 sequence (Q63634 whole entry): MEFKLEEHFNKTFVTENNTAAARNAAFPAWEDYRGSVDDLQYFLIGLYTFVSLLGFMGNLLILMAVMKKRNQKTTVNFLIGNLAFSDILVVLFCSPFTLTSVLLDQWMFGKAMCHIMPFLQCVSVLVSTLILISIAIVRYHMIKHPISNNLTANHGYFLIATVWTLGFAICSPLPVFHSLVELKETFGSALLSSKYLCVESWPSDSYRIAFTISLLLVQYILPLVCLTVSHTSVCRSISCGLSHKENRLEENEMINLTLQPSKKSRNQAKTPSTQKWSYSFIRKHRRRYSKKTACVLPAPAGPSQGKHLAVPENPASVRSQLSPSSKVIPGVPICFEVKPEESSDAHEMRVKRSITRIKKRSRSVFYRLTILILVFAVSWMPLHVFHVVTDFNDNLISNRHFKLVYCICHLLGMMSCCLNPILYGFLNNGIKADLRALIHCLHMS
Description: Inhibition of rat Y5 receptor

[10] = test system: Brain; details: rat, in vivo, po, 10 mg/kg, 2 h
Description: Drug level in rat brain at 10 mg/kg, po after 2 hrs

[11] = in vivo; details: rat, plasma, po, 10 mg/kg
Description: Plasma concentration in rat at 10 mg/kg, po after 2 hrs

[12] = in vivo; details: rat, CSF, po, 10 mg/kg
Description: Drug level in rat CSF at 10 mg/kg, po after 2 hrs

[13] = in vitro; details: rat, hepatocytes
Description: Clearance in rat hepatocytes

[14] = physchem; details: buffer, pH 7.4
Description: Lipophilicity, log D at pH 7.4

[15] = test system: CYP3A; experiment: Inhibition of CYP3A at 10 uM; assay type: ADME
[16] = in vivo; details: rat, CSF/plasma, po, 10 mg/kg
Description: Ratio of drug level in CSF to plasma in rat at 10 mg/kg, po after 2 hrs

[17] = species: Mus musculus; experiment: Ex vivo Y5 receptor occupancy in mouse brain at plasma level of 100 to 200 ng/ml; assay type: functional, organism-based
[18] = Ratio of drug level in brain to plasma in rat at 10 mg/kg, po after 2 hrs; assay type: ADME, organism-based; parameters: dose 10 mg/kg, route oral; details: read-out: BPR

Structure (SMILES): O=C1O[C@]2(CC[C@H](C(=O)Nc3cc(-c4ccccc4)[nH]n3)CC2)c2ncccc21
- IC50 [1]: 26 nM

Structure (SMILES): O=C1O[C@]2(CC[C@H](C(=O)Nc3ccn(-c4ccccc4F)n3)CC2)c2cnccc21 [MK-0557]
- inhibition in vivo at 3 mg/kg [2]: 61%
- inhibition in vivo at 10 mg/kg [3]: 83%
- inhibition in vivo at 10 mg/kg [4]: 22%
- Activity [5]: Active
- minimal effective dose [6]: 3 mg/kg
- inhibition in vivo at 0.3 mg/kg [7]: 27%
- inhibition in vivo at 1 mg/kg [8]: 43%
- IC50 [9]: 2.1 nM
- Drug uptake [10]: 2.15 nmol/g
- concentration at 2 h [11]: 1590 nM
- concentration at 2 h [12]: 152 nM
- CLhep predicted [13]: 9 mL/min/kg
- logD [14]: 3.2

Structure (SMILES): O=C1O[C@]2(CC[C@H](C(=O)Nc3cnc(-c4ccccc4)cn3)CC2)c2ccncc21
- inhibition at 10 µM [15]: > 50%
- IC50 [1]: 2.4 nM
- CLhep predicted [13]: 42 mL/min/kg

Structure (SMILES): O=C1O[C@]2(CC[C@H](C(=O)Nc3cnn(-c4ccccc4)c3)CC2)c2cnccc21
- IC50 [1]: 2.2 nM
- Drug uptake [10]: 0.39 nmol/g
- concentration at 2 h [11]: 1520 nM
- concentration at 2 h [12]: 45 nM
- Kp at 2 h [16]: 0.115
- CLhep predicted [13]: < 1 mL/min/kg

Structure (SMILES): O=C1OC2(CCC(C(=O)Nc3cnc(-c4ccccc4)cn3)CC2)c2ccccc21 (configuration not stated)
- Activity [17]: Active
- minimal effective dose [6]: > 10 mg/kg
- IC50 [9]: 2.5 nM

Structure (SMILES): O=C1O[C@]2(CC[C@H](C(=O)Nc3cc(-c4ccccc4)[nH]n3)CC2)c2cnccc21
- IC50 [1]: 2.7 nM
- Drug uptake [10]: 0.5 nmol/g
- concentration at 2 h [11]: 6100 nM
- concentration at 2 h [12]: 59 nM
- CLhep predicted [13]: 3 mL/min/kg
- logD [14]: 3.16

Structure (SMILES): O=C1O[C@]2(CC[C@H](C(=O)Nc3ncc(-c4ccccc4)cn3)CC2)c2cccnc21
- CLhep predicted [13]: 49 mL/min/kg

Structure (SMILES): O=C1O[C@]2(CC[C@H](C(=O)Nc3cnn(-c4ccccc4)n3)CC2)c2cnccc21
- IC50 [1]: 0.89 nM
- Drug uptake [10]: 1.33 nmol/g
- concentration at 2 h [11]: 680 nM
- concentration at 2 h [12]: 42 nM
- Kp at 2 h [16]: 0.032
- CLhep predicted [13]: 21 mL/min/kg
- logD [14]: 3.4

Structure (SMILES): O=C1O[C@]2(CC[C@H](C(=O)Nc3ccn(-c4ccccc4)n3)CC2)c2cnccc21
- Kp at 2 h [18]: 1.06
- minimal effective dose [6]: > 10 mg/kg
- IC50 [1]: 2.3 nM
- IC50 [9]: 2.2 nM
- Drug uptake [10]: 3.13 nmol/g
- concentration at 2 h [11]: 2940 nM
- concentration at 2 h [12]: 276 nM
- Kp at 2 h [16]: 0.088
- CLhep predicted [13]: 20 mL/min/kg
- logD [14]: 3.1

Structure (SMILES): O=C1O[C@]2(CC[C@H](C(=O)Nc3cc(-c4ccccc4)on3)CC2)c2cnccc21
- IC50 [1]: 2.1 nM
- concentration at 2 h [11]: 290 nM
- CLhep predicted [13]: 6 mL/min/kg

Structure (SMILES): O=C1O[C@]2(CC[C@H](C(=O)Nc3cnc(-c4ccccc4)cn3)CC2)c2ncccc21
- IC50 [1]: 3.9 nM
- CLhep predicted [13]: 39 mL/min/kg

Structure (SMILES): O=C1O[C@]2(CC[C@H](C(=O)Nc3cnn(-c4ccccc4)c3)CC2)c2cccnc21
- minimal effective dose [6]: 10 mg/kg
- IC50 [1]: 1.3 nM
- IC50 [9]: 4.7 nM
- Drug uptake [10]: 0.5 nmol/g
- concentration at 2 h [11]: 6680 nM
- concentration at 2 h [12]: 91 nM
- Kp at 2 h [16]: 0.18
- CLhep predicted [13]: 1 mL/min/kg
- logD [14]: 2.9

Structure (SMILES): O=C1O[C@]2(CC[C@H](C(=O)Nc3ncc(-c4ccccc4)cn3)CC2)c2ncccc21
- CLhep predicted [13]: 49 mL/min/kg

Structure (SMILES): O=C1O[C@]2(CC[C@H](C(=O)Nc3cc(-c4ccccc4)on3)CC2)c2ncccc21
- IC50 [1]: 2.4 nM
- CLhep predicted [13]: 36 mL/min/kg
- logD [14]: 3.7

Structure (SMILES): O=C1O[C@]2(CC[C@H](C(=O)Nc3cnc(-c4ccccc4)cn3)CC2)c2ccccc21
- IC50 [1]: 1.5 nM
- CLhep predicted [13]: 35 mL/min/kg
- logD [14]: > 4

Structure (SMILES): O=C1O[C@]2(CC[C@H](C(=O)Nc3ccn(-c4ccccc4)n3)CC2)c2cccnc21
- minimal effective dose [6]: 3 mg/kg
- IC50 [1]: 4.4 nM
- IC50 [9]: 1.7 nM
- Drug uptake [10]: 2.79 nmol/g
- concentration at 2 h [11]: 6460 nM
- concentration at 2 h [12]: 416 nM
- Kp at 2 h [16]: 0.15
- CLhep predicted [13]: 4 mL/min/kg
- logD [14]: 2.8

Structure (SMILES): O=C1O[C@]2(CC[C@H](C(=O)Nc3ncc(-c4ccccc4)cn3)CC2)c2ccncc21
- inhibition at 10 µM [15]: > 50%
- CLhep predicted [13]: 42 mL/min/kg

Structure (SMILES): O=C1O[C@]2(CC[C@H](C(=O)Nc3ncc(-c4ccccc4)cn3)CC2)c2cnccc21
- CLhep predicted [13]: 39 mL/min/kg

Structure (SMILES): O=C1O[C@]2(CC[C@H](C(=O)Nc3ccn(-c4cccc(F)c4)n3)CC2)c2cnccc21
- IC50 [1]: 2 nM
- Drug uptake [10]: 1.36 nmol/g
- concentration at 2 h [11]: 1090 nM
- concentration at 2 h [12]: 77 nM
- CLhep predicted [13]: 10 mL/min/kg
- logD [14]: 3.4

Structure (SMILES): O=C1O[C@]2(CC[C@H](C(=O)Nc3ccc(-c4ccccc4)cn3)CC2)c2cnccc21
- IC50 [1]: 2.1 nM
- concentration at 2 h [11]: 20 nM
- CLhep predicted [13]: 14 mL/min/kg

Structure (SMILES): O=C1O[C@]2(CC[C@H](C(=O)Nc3cc(-c4ccccc4)n[nH]3)CC2)c2ccncc21
- inhibition at 10 µM [15]: > 50%
- IC50 [1]: 2.9 nM
- CLhep predicted [13]: 9 mL/min/kg

Structure (SMILES): O=C1O[C@]2(CC[C@H](C(=O)Nc3cc(-c4ccccc4)[nH]n3)CC2)c2cccnc21
- IC50 [1]: 5.4 nM
- CLhep predicted [13]: 2 mL/min/kg

Structure (SMILES): O=C1O[C@]2(CC[C@H](C(=O)Nc3ccn(-c4ccc(F)cc4)n3)CC2)c2cnccc21
- minimal effective dose [6]: 1 mg/kg
- IC50 [1]: 0.92 nM
- IC50 [9]: 2.1 nM
- Drug uptake [10]: 1.24 nmol/g
- concentration at 2 h [11]: 890 nM
- concentration at 2 h [12]: 81 nM
- CLhep predicted [13]: 7 mL/min/kg
- logD [14]: 3.2

Structure (SMILES): O=C1O[C@]2(CC[C@H](C(=O)Nc3cnc(-c4ccccc4)cn3)CC2)c2cccnc21
- IC50 [1]: 4.2 nM
- Drug uptake [10]: 2.5 nmol/g
- concentration at 2 h [11]: 3750 nM
- concentration at 2 h [12]: 174 nM
- CLhep predicted [13]: 18 mL/min/kg
- logD [14]: 3.1

Structure (SMILES): O=C1O[C@]2(CC[C@H](C(=O)Nc3cnc(-c4ccccc4)cn3)CC2)c2cnccc21
- IC50 [1]: 2.2 nM
- CLhep predicted [13]: 36 mL/min/kg
- logD [14]: 3.39

Structure (SMILES): O=C1O[C@]2(CC[C@H](C(=O)Nc3csc(-c4ccccc4)n3)CC2)c2cnccc21
- IC50 [1]: 1.2 nM
- concentration at 2 h [11]: 190 nM
- CLhep predicted [13]: 12 mL/min/kg

Reference: ChEMBL document CHEMBL1152582, “Discovery of trans-N-[1-(2-fluorophenyl)-3-pyrazolyl]-3-oxospiro[6-azaisobenzofuran-1(3H),1'-cyclohexane]-4'-carboxamide, a potent and orally active neuropeptide Y Y5 receptor antagonist” (Bioorg Med Chem, 2009)
